These results are taken from patent US7273865B2, “Thiazolopyridine” (Hoffmann-La Roche Inc., priority 2003, dated 2007).

The target in experiment [1] is T1, human adenosine A2A receptor (Homo sapiens, UniProt P29274).
T1 construct: expressed in transfected cells; host or cells: CHO cells, semliki forest virus expression system; membranes used
The experiment in a line: Human adenosine A2A receptor [3H]-SCH-58261 binding assay. The conditions noted are these: for Selectivity: hA2A versus hA1; for Ki: recombinant receptor expressed in CHO cells, [3H]-SCH-58261 1 nM, SPA, read-out: hA2A (converted). On the procedure:
(§1) The human adenosine A2A receptor was recombinantly expressed in Chinese hamster ovary (CHO) cells using the semliki forest virus expression system. Cells were harvested, washed twice by centrifugation, homogenized and again washed by centrifugation. The [^3H]-SCH-58261 (Dionisotti et al., 1997, Br J Pharmacol 121, 353; 1 nM) binding assay was carried out in 96-well plates in the presence of (per well) approximately 2.5 μg of membrane protein, 0.5 mg of Ysi-poly-1-lysine SPA beads and 0.1 U adenosine deaminase in a final volume of 200 μl of buffer (containing 50 mM Tris, 120 mM NaCl, 5 mM KCl, 2 mM CaCl2 and 10 mM MgCl2 (pH 7.4)). Non-specific binding was defined using xanthine amine congener (XAC; 2 μM). Compounds were tested at 10 concentrations from 10 μM-0.3 nM. All assays were conducted in duplicate and repeated at least two times. Assay plates were incubated for 1 hour at room temperature before centrifugation and then bound ligand determined using a Packard Topcount scintillation counter. IC50 values were calculated using a non-linear curve fitting program and Ki values calculated using the Cheng-Prussoff equation.

The target of experiment [2] is T2, human adenosine A1 receptor (Homo sapiens, UniProt P30542).
T2 construct: expressed in transfected cells; host or cells: CHO cells, semliki forest virus expression system; membranes used
T2 sequence (P30542 1-326): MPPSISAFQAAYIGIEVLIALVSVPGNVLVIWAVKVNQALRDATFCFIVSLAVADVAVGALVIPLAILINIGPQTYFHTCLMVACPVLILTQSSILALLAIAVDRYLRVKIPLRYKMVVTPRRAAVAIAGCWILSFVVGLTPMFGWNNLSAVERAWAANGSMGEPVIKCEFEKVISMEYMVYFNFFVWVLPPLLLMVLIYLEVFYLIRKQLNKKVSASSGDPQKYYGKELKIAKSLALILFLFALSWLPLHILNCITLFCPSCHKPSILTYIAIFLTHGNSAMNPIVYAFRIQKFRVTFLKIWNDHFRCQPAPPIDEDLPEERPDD
Description: Human adenosine A1 receptor [3H]-DPCPX binding assay. As to conditions: recombinant receptor expressed in CHO cells, [3H]-DPCPX 0.6 nM, SPA; read-out: hA1 (converted). Here is the method: as §1, with “A1” for “A2A”, “[^3H]-DPCPX (([propyl-3H]8-cyclopentyl-1,3-dipropyxanthine); 0.6” for “[^3H]-SCH-58261 (Dionisotti et al., 1997, Br J Pharmacol 121, 353; 1”

T1 sequence (P29274 whole entry): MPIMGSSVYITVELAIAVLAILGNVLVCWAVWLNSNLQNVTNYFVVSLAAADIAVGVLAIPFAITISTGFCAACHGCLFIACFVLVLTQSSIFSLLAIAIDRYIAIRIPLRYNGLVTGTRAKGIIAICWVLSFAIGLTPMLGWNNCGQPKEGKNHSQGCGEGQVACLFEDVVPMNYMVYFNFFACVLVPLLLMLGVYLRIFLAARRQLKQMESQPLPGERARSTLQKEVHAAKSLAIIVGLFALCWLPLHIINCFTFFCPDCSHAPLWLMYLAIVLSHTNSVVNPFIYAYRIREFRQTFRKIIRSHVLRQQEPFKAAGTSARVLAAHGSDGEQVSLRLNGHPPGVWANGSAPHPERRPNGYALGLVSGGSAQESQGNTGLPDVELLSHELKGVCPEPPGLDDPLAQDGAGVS

With `COc1cnc(N2CCOCC2)c2sc(NC(=O)c3ccc(F)cc3)nc12` [Example 1, 4-Fluoro-N-(7-methoxy-4-morpholin-4-yl-thiazolo[5,4-c]pyridin-2-yl)-benzamide], in experiment [1], the Selectivity was found to be 420 and the Ki is 4.17 nM. Further, in experiment [2], the Ki was 1780 nM.
In the same order, the values of `COc1ccc(C(=O)Nc2nc3c(OC)cnc(N4CCOCC4)c3s2)cc1` [Example 3, 4-Methoxy-N-(7-methoxy-4-morpholin-4-yl-thiazolo[5,4-c]pyridin-2-yl)-benzamide] are 384, 5.01 nM and 1910 nM.
The like results for `COc1cnc(N2CCOCC2)c2sc(NC(=O)c3ccnc(C)c3)nc12` [Example 4, N-(7-Methoxy-4-morpholin-4-yl-thiazolo[5,4-c]pyridin-2-yl)-2-methyl-isonicotinamide] were, in that order, 512, 11.2 nM and 5750 nM.
The like results for `COc1cc(C(=O)Nc2nc3c(OC)cnc(N4CCOCC4)c3s2)ccn1` [Example 5, 2-Methoxy-N-(7-methoxy-4-morpholin-4-yl-thiazolo[5,4-c]pyridin-2-yl)-isonicotinamide] were, in that order, 489, 12.9 nM and 6310 nM.
For the compound `COc1cnc(N2CCOCC2)c2sc(NC(=O)c3cccc(F)c3)nc12` [Example 6, 3-Fluoro-N-(7-methoxy-4-morpholin-4-yl-thiazolo[5,4-c]pyridin-2-yl)-benzamide], in experiment [1], the Selectivity worked out at 312 and the Ki is 5.37 nM. The Ki in experiment [2] was 1660 nM.
In the same order, the values of `COc1cccc(C(=O)Nc2nc3c(OC)cnc(N4CCOCC4)c3s2)c1` [Example 7, 3-Methoxy-N-(7-methoxy-4-morpholin-4-yl-thiazolo[5,4-c]pyridin-2-yl)-benzamide] are 436, 3.09 nM and 1350 nM.
`COc1ccc(C(=O)Nc2nc3c(OC)cnc(N4CCOCC4)c3s2)cc1OC` [Example 8, 3,4-Dimethoxy-N-(7-methoxy-4-morpholin-4-yl-thiazolo[5,4-c]pyridin-2-yl)-benzamide]: in experiment [1], the Selectivity turned out to be 535 and the Ki is 13.8 nM.
In experiment [1], `COc1cnc(N2CCOCC2)c2sc(NC(=O)c3ccc4c(c3)OCO4)nc12` [Example 9, Benzo [1,3]dioxole-5-carboxylic acid (7-methoxy-4-morpholin-4-yl-thiazolo[5,4-c]pyridin-2-yl)-amide] yielded a Selectivity of 527. In addition, the Ki was 7.24 nM in experiment [1] and 3800 nM in experiment [2].
In the same order, the values of `COc1cnc(N2CCOCC2)c2sc(NC(=O)CC3CCOCC3)nc12` [Example 11, N-(7-Methoxy-4-morpholin-4-yl-thiazolo[5,4-c]pyridin-2-yl)-2-(tetrahydro-pyran-4-yl)-acetamide] are 310, 16.2 nM and 5010 nM.
With `COc1cnc(N2CCOCC2)c2sc(NC(=O)c3ccncc3)nc12` [Example 17, N-(7-Methoxy-4-morpholin-4-yl-thiazolo[5,4-c]pyridin-2-yl)-isonicotinamide], in experiment [1], the Selectivity turned out to be 258 and the Ki was 21.9 nM. Also, the Ki in experiment [2] was 5620 nM.
In the case of `COc1cnc(N2CCOCC2)c2sc(NC(=O)c3ccnc(N4CC(O)C4)c3)nc12` [Example 18, 2-(3-Hydroxy-azetidin-1-yl)-N-(7-methoxy-4-morpholin-4-yl-thiazolo[5,4-c]pyridin-2-yl)-isonicotinamide], in experiment [1], the Selectivity came to 868 and the Ki was 7.94 nM.
With `COc1cnc(N2CCOCC2)c2sc(NC(=O)c3ccnc(N4CC(OC)C4)c3)nc12` [Example 19, 2-(3-Methoxy-azetidin-1-yl)-N-(7-methoxy-4-morpholin-4-yl-thiazolo[5,4-c]pyridin-2-yl)-isonicotinamide], in experiment [1], the Selectivity is 347 and the Ki was 5.5 nM. In addition, in experiment [2], the Ki was 1910 nM.
With `COc1ccc(C(=O)Nc2nc3c(OC)cnc(N4CCOCC4)c3s2)cn1` [Example 21, 6-Methoxy-N-(7-methoxy-4-morpholin-4-yl-thiazolo[5,4-c]pyridin-2-yl)-nicotinamide], in experiment [1], the Selectivity stood at 519 and the Ki was 14.1 nM.
With `COc1cnc(N2CCOCC2)c2sc(NC(=O)c3ccnc(N4CCOCC4)c3)nc12` [Example 22, N-(7-Methoxy-4-morpholin-4-yl-thiazolo[5,4-c]pyridin-2-yl)-2-morpholin-4-yl-isonicotinamide], in experiment [1], the Selectivity is reported as 1647 and the Ki is 3.89 nM. In addition, in experiment [2], the Ki is 6460 nM.
Consider `COc1cnc(N2CCOCC2)c2sc(NC(=O)c3ccc(N4CCOCC4)cc3)nc12` [Example 29, N-(7-Methoxy-4-morpholin-4-yl-thiazolo[5,4-c]pyridin-2-yl)-4-morpholin-4-yl-benzamide], for which, in experiment [1], the Selectivity was determined as 572 and the Ki was 12.6 nM.
In turn, `COc1cnc(N2CCOCC2)c2sc(NC(=O)c3cccc(N4CCOCC4)c3)nc12` [Example 30, N-(7-Methoxy-4-morpholin-4-yl-thiazolo[5,4-c]pyridin-2-yl)-3-morpholin-4-yl-benzamide] registered a Selectivity in experiment [1] of 1716. In addition, the Ki in experiment [1] was 4.07 nM; in experiment [2], 7080 nM.
In the case of `COCCN(C)Cc1ccc(C(=O)Nc2nc3c(OC)cnc(N4CCOCC4)c3s2)cc1` [Example 31, 4-{[(2-Methoxy-ethyl)-methyl-amino]-methyl}-N-(7-methoxy-4-morpholin-4-yl-thiazolo[5,4-c]pyridin-2-yl)-benzamide], in experiment [1], the Selectivity worked out at 441 and the Ki is 13.8 nM. The Ki in experiment [2] is 6030 nM.
In the case of `COc1cnc(N2CCOCC2)c2sc(NC(=O)c3ccnc(CN4CCOCC4)c3)nc12` [Example 33, N-(7-Methoxy-4-morpholin-4-yl-thiazolo[5,4-c]pyridin-2-yl)-2-morpholin-4-ylmethyl-isonicotinamide], in experiment [1], the Selectivity is given as 291 and the Ki was 25.1 nM.
For `COc1cnc(N2CCOCC2)c2sc(NC(=O)N3CCC(CO)CC3)nc12` [Example 36, 4-Hydroxymethyl-piperidine-1-carboxylic acid (7-methoxy-4-morpholin-4-yl-thiazolo[5,4-c]pyridin-2-yl)-amide], in experiment [1], the Selectivity turned out to be 468 and the Ki is 6.76 nM. For the same compound, the Ki in experiment [2] was 3160 nM.
Turning to `COc1cnc(N2CCOCC2)c2sc(NC(=O)N3CCC4(CCN(C)C4=O)CC3)nc12` [Example 37, 2-Methyl-1-oxo-2,8-diaza-spiro [4.5] decane-8-carboxylic acid (7-methoxy-4-morpholin-4-yl-thiazolo[5,4-c]pyridin-2-yl)-amide], in experiment [1], the Selectivity was 346 and the Ki was 20.9 nM.
In the same order, the values of `COc1cnc(N2CCOCC2)c2sc(NC(=O)c3ccc(CN4CCOCC4)cc3)nc12` [Example 39, N-(7-Methoxy-4-morpholin-4-yl-thiazolo[5,4-c]pyridin-2-yl)-4-morpholin-4-ylmethyl-benzamide] are 446 and 16.2 nM.
Regarding `COc1cnc(N2CCOCC2)c2sc(NC(=O)N3CCC4(CCCO4)CC3)nc12` [Example 40, 1-Oxa-8-aza-spiro[4.5]decane-8-carboxylic acid (7-methoxy-4-morpholin-4-yl-thiazolo[5,4-c]pyridin-2-yl)-amide], in experiment [1], the Selectivity is listed as 387 and the Ki is 15.5 nM. For the same compound, in experiment [2], the Ki was 5890 nM.
The like results for `COc1cnc(N2CCOCC2)c2sc(NC(=O)N3CCC(C)(CO)CC3)nc12` [Example 43, 4-Hydroxymethyl-4-methyl-piperidine-1-carboxylic acid (7-methoxy-4-morpholin-4-yl-thiazolo[5,4-c]pyridin-2-yl)-amide] were, in that order, 593, 11.7 nM and 7080 nM.
